The values below are quoted from earlier work in paper PMC11696576, “Next generation thiazolyl ketone inhibitors of cytosolic phospholipase A2 α for targeted cancer therapy” (Nature Communications, 2025).

In the data set the target is T1, secreted GV sPLA2 (Homo sapiens, UniProt P39877).
T1 sequence (P39877 21-138): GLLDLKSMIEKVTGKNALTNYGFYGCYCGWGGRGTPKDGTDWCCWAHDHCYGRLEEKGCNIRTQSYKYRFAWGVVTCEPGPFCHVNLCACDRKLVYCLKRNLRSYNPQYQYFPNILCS
Also noted: method as in PMID 25152071. Particulars: 0.091 mole fraction; previously published data ref 19; cited from earlier work.

On to `CCCCCCCCc1ccc(OCC(=O)c2nc(C(=O)OC)cs2)cc1` [GK470], for which the “GV sPLA2 % Inhib” value is on record as 41%.
